Data from ChEMBL document CHEMBL5346873, “Strategic modification of low-activity natural antimicrobial peptides confers antibacterial potential in vitro and in vivo” (Eur J Med Chem, 2023).
Activity calls are given as the source filed them. The rule behind the calls is not given here.

Columns and labels:
[1] = system: Staphylococcus haemolyticus; assay: Bactericidal activity against Staphylococcus haemolyticus incubated overnight; assay type: functional
[2] = Dermal toxicity in BALB/c mouse assessed as irritation at 125 mg/kg, TOPp measured after 48 hrs; assay type: organism-based; conditions: in vivo, topical_or_ocular
Aeromonas hydrophila [3] = assay: Bactericidal activity against Aeromonas hydrophila incubated overnight; assay type: functional
Vibrio vulnificus [4] = assay: Antibacterial activity against Vibrio vulnificus at pH 2 to 10; assay type: functional, organism-based
Klebsiella aerogenes [5] = assay: Synergistic antibacterial activity against Enterobacter aerogenes in presence of meropenem by checkerboard microtiter plate assay; assay type: functional
Acinetobacter baumannii [6] = assay: Synergistic antibacterial activity against Acinetobacter baumannii in presence of doxycycline by checkerboard microtiter plate assay; assay type: functional
Vibrio vulnificus [7] = assay: Antibacterial activity against Vibrio vulnificus in presence of 10 ug/ml proteinase K; assay type: functional, organism-based
Vibrio vulnificus [8] = assay: Antibacterial activity against Vibrio vulnificus in presence of 0.1 ug/ml trypsin; assay type: functional, organism-based
Enterococcus faecalis = assay: Antibacterial activity against Enterococcus faecalis incubated for 16 to 20 hrs; assay type: functional; conditions: time 16-20 hrs
Vibrio vulnificus [9] = assay: Antibacterial activity against Vibrio vulnificus in presence of proteinase K; assay type: functional, organism-based
Vibrio alginolyticus [10] = assay: Bactericidal activity against Vibrio alginolyticus incubated overnight; assay type: functional
Vibrio vulnificus [11] = assay: Antibacterial activity against Vibrio vulnificus V3 incubated for 16 to 20 hrs; assay type: functional; conditions: time 16-20 hrs
Vibrio vulnificus [12] = assay: Antibacterial activity against Vibrio vulnificus 204 assessed as induction of resistance development by measuring fold increase in MIC measured after 15 passages; assay type: functional
Pseudomonas aeruginosa [13] = assay: Additive antibacterial activity against Pseudomonas aeruginosa assessed as fractional inhibitory concentration in presence of meropenem by checkerboard microtiter plate assay; assay type: functional
Acinetobacter baumannii [14] = assay: Additive antibacterial activity against Acinetobacter baumannii assessed as fractional inhibitory concentration in presence of meropenem by checkerboard microtiter plate assay; assay type: functional
Vibrio alginolyticus [15] = assay: Antibacterial activity against Vibrio alginolyticus incubated for 16 to 20 hrs; assay type: functional; conditions: time 16-20 hrs
Nakaseomyces glabratus [16] = assay: Fungicidal activity against Candida glabrata incubated overnight; assay type: functional
Klebsiella pneumoniae [17] = assay: Synergistic antibacterial activity against Klebsiella pneumoniae expressing NDM1 assessed as doxycycline MIC by checkerboard microtiter plate assay; assay type: functional
Candida tropicalis = assay: Antifungal activity against Candida tropicalis incubated for 16 to 20 hrs; assay type: functional; conditions: time 16-20 hrs
[18] = Dermal toxicity in BALB/c mouse assessed as morphological changes at 125 mg/kg, TOPp measured after 48 hrs; assay type: organism-based; conditions: in vivo, topical_or_ocular
Salmonella typhimurium = assay: Antibacterial activity against Salmonella typhimurium incubated for 16 to 20 hrs; assay type: functional, Salmonella enterica subsp. enterica serovar Typhimurium; conditions: Salmonella enterica; time 16-20 hrs
Aeromonas hydrophila [19] = assay: Antibacterial activity against Aeromonas hydrophila incubated for 16 to 20 hrs; assay type: functional; conditions: time 16-20 hrs
Streptococcus iniae [20] = assay: Additive antibacterial activity against Streptococcus iniae assessed as fractional inhibitory concentration in presence of meropenem by checkerboard microtiter plate assay; assay type: functional
Vibrio vulnificus [21] = assay: Antibacterial activity against Vibrio vulnificus treated with preheated compounds; assay type: functional, organism-based
Vibrio vulnificus [22] = assay: Antibiofilm activity against Vibrio vulnificus V2 assessed as inhibition of biofilm formation at 25 ug/ml incubated for 24 hrs by crystal violet staining based assay; assay type: functional, organism-based; conditions: dose 25.0 µg/ml
Klebsiella pneumoniae [23] = assay: Synergistic antibacterial activity against Klebsiella pneumoniae expressing NDM1 assessed as fractional inhibitory concentration in presence of doxycycline by checkerboard microtiter plate assay; assay type: functional
Vibrio vulnificus [24] = assay: Antibacterial activity against Vibrio vulnificus 204 in presence of human serum; assay type: functional, organism-based
Vibrio vulnificus [25] = assay: Antibacterial activity against Vibrio vulnificus V1 incubated for 16 to 20 hrs; assay type: functional; conditions: time 16-20 hrs
Streptococcus iniae [26] = assay: Bactericidal activity against Streptococcus iniae incubated overnight; assay type: functional
[27] = Hemolytic activity in human RBC at 100 ug/ml incubated for 1 hr; assay type: toxicity, cell-based, Erythrocyte; conditions: human red blood cells (erythrocytes), at 100 µg/mL, read-out: Activity
Escherichia coli [28] = assay: Synergistic antibacterial activity against Escherichia coli assessed as meropenem MIC by checkerboard microtiter plate assay; assay type: functional
Acinetobacter baumannii [29] = assay: Synergistic antibacterial activity against Acinetobacter baumannii assessed as doxycycline MIC by checkerboard microtiter plate assay; assay type: functional
Vibrio vulnificus [30] = assay: Bactericidal activity against Vibrio vulnificus V3 incubated overnight; assay type: functional
[31] = Cytotoxicity against human HaCaT cells incubated for 24 hrs by LDH assay; assay type: toxicity, cell-based; conditions: read-out: LD50
Vibrio harveyi = assay: Bactericidal activity against Vibrio harveyi incubated overnight; assay type: functional
Klebsiella aerogenes [32] = assay: Bactericidal activity against Enterobacter aerogenes incubated overnight; assay type: functional
Streptococcus agalactiae [33] = assay: Synergistic antibacterial activity against Streptococcus agalactiae assessed as doxycycline MIC by checkerboard microtiter plate assay; assay type: functional
Vibrio vulnificus [34] = assay: Synergistic antibacterial activity against Vibrio vulnificus in presence of doxycycline by checkerboard microtiter plate assay; assay type: functional
Vibrio vulnificus [35] = assay: Antibiofilm activity against Vibrio vulnificus 204 assessed as inhibition of biofilm formation at 25 ug/ml incubated for 24 hrs by crystal violet staining based assay; assay type: functional, organism-based; conditions: dose 25.0 µg/ml
Vibrio vulnificus [36] = assay: Antibacterial activity against Vibrio vulnificus 204 incubated for 16 to 20 hrs; assay type: functional; conditions: time 16-20 hrs
Streptococcus agalactiae [37] = assay: Synergistic antibacterial activity against Streptococcus agalactiae assessed as meropenem MIC by checkerboard microtiter plate assay; assay type: functional
Vibrio vulnificus [38] = assay: Antibiofilm activity against Vibrio vulnificus 204 assessed as inhibition of biofilm formation at 50 to 100 ug/ml incubated for 24 hrs by crystal violet staining based assay; assay type: functional, organism-based; conditions: dose 50-100 µg/ml
Pseudomonas aeruginosa [39] = assay: Additive antibacterial activity against Pseudomonas aeruginosa in presence of meropenem by checkerboard microtiter plate assay; assay type: functional
Staphylococcus aureus = assay: Bactericidal activity against Staphylococcus aureus incubated for overnight; assay type: functional
Acinetobacter baumannii [40] = assay: Bactericidal activity against Acinetobacter baumannii incubated for overnight; assay type: functional
Enterococcus faecium = assay: Antibacterial activity against Enterococcus faecium incubated for 16 to 20 hrs; assay type: functional; conditions: time 16-20 hrs
Edwardsiella tarda = assay: Antibacterial activity against Edwardsiella tarda incubated for 16 to 20 hrs; assay type: functional; conditions: time 16-20 hrs
Vibrio vulnificus [41] = assay: Antibacterial activity against Vibrio vulnificus in presence of pancreatin; assay type: functional, organism-based
Klebsiella pneumoniae [42] = assay: Antibacterial activity against NDM Klebsiella pneumoniae incubated for 16 to 20 hrs; assay type: functional; conditions: time 16-20 hrs
Nakaseomyces glabratus [43] = assay: Antifungal activity against Candida glabrata incubated for 16 to 20 hrs; assay type: functional; conditions: time 16-20 hrs
Escherichia coli [44] = assay: Synergistic antibacterial activity against Escherichia coli assessed as fractional inhibitory concentration in presence of meropenem by checkerboard microtiter plate assay; assay type: functional
Vibrio vulnificus [45] = assay: Synergistic antibacterial activity against Vibrio vulnificus assessed as meropenem MIC by checkerboard microtiter plate assay; assay type: functional
Vibrio vulnificus [46] = assay: Synergistic antibacterial activity against Vibrio vulnificus assessed as fractional inhibitory concentration in presence of meropenem by checkerboard microtiter plate assay; assay type: functional
Streptococcus iniae [47] = assay: Additive antibacterial activity against Streptococcus iniae in presence of meropenem by checkerboard microtiter plate assay; assay type: functional
Salmonella enterica = assay: Bactericidal activity against Salmonella enterica incubated overnight; assay type: functional
Escherichia coli [48] = assay: Synergistic antibacterial activity against Escherichia coli in presence of meropenem by checkerboard microtiter plate assay; assay type: functional
Klebsiella oxytoca = assay: Antibacterial activity against Klebsiella oxytoca incubated for 16 to 20 hrs; assay type: functional; conditions: time 16-20 hrs
Streptococcus iniae [49] = assay: Additive antibacterial activity against Streptococcus iniae assessed as meropenem MIC by checkerboard microtiter plate assay; assay type: functional
Vibrio vulnificus [50] = assay: Antibiofilm activity against Vibrio vulnificus V3 assessed as inhibition of biofilm formation at 25 ug/ml incubated for 24 hrs by crystal violet staining based assay; assay type: functional, organism-based; conditions: dose 25.0 µg/ml

H-KKCIAKAILKKAKKLLKKLVNP-OH
MBC [1]: < 1.56 µg/mL
Activity [2]: Non-Toxic
MBC (Aeromonas hydrophila [3]): > 100 µg/mL
Activity (Vibrio vulnificus [4]): Active
MIC (Klebsiella aerogenes [5]): 0.097 µg/mL
MIC (Acinetobacter baumannii [6]): 0.048 µg/mL
Activity (Vibrio vulnificus [7]): inactive
Activity (Vibrio vulnificus [8]): Active
MIC (Enterococcus faecalis): 25 µg/mL
Activity (Vibrio vulnificus [9]): Active
MBC (Vibrio alginolyticus [10]): 6.25 µg/mL
MIC (Vibrio vulnificus [11]): 12.5 µg/mL
fold change (FC) (Vibrio vulnificus [12]): <2
FIC (Pseudomonas aeruginosa [13]): 0.53
FIC (Acinetobacter baumannii [14]): 0.51
MIC (Vibrio alginolyticus [15]): 3.12 µg/mL
MFC (Nakaseomyces glabratus [16]): > 100 µg/mL
MIC (Klebsiella pneumoniae [17]): 3.12 µg/mL
MIC (Candida tropicalis): 100 µg/mL
Activity [18]: Non-Toxic
MIC (Salmonella typhimurium): 50 µg/mL
MIC (Aeromonas hydrophila [19]): > 100 µg/mL
FIC (Streptococcus iniae [20]): 0.51
Activity (Vibrio vulnificus [21]): Active
Activity (Vibrio vulnificus [22]): inactive
FIC (Klebsiella pneumoniae [23]): 0.37
Activity (Vibrio vulnificus [24]): Active
MIC (Vibrio vulnificus [25]): 12.5 µg/mL
MBC (Streptococcus iniae [26]): < 1.56 µg/mL
hemolysis at 1 h, 100 ug/ml [27]: 5.5%
MIC (Escherichia coli [28]): 0.001 µg/mL
MIC (Acinetobacter baumannii [29]): 0.003 µg/mL
MBC (Vibrio vulnificus [30]): 12.5 µg/mL
CC50 at 24 h [31]: > 100 µg/mL
MBC (Vibrio harveyi): 25 µg/mL
MBC (Klebsiella aerogenes [32]): 12.5 µg/mL
MIC (Streptococcus agalactiae [33]): 0.006 µg/mL
MIC (Vibrio vulnificus [34]): 0.195 µg/mL
Activity (Vibrio vulnificus [35]): inactive
MIC (Vibrio vulnificus [36]): 6.25 µg/mL
MIC (Streptococcus agalactiae [37]): 0.002 µg/mL
Activity (Vibrio vulnificus [38]): Active
MIC (Pseudomonas aeruginosa [39]): 0.78 µg/mL
MBC (Staphylococcus aureus): > 100 µg/mL
MBC (Acinetobacter baumannii [40]): 1.56 µg/mL
MIC (Enterococcus faecium): > 100 µg/mL
MIC (Edwardsiella tarda): > 100 µg/mL
Activity (Vibrio vulnificus [41]): Active
MIC (Klebsiella pneumoniae [42]): 25 µg/mL
MIC (Nakaseomyces glabratus [43]): > 100 µg/mL
FIC (Escherichia coli [44]): 0.07
MIC (Vibrio vulnificus [45]): 0.003 µg/mL
FIC (Vibrio vulnificus [46]): 0.14
MIC (Streptococcus iniae [47]): 0.048 µg/mL
MBC (Salmonella enterica): 12.5 µg/mL
MIC (Escherichia coli [48]): 0.39 µg/mL
MIC (Klebsiella oxytoca): 50 µg/mL
MIC (Streptococcus iniae [49]): 0.195 µg/mL
Activity (Vibrio vulnificus [50]): inactive
